Values of other authors, collected in paper PMC3368153 (Nature chemical biology, 2012).

Tests used:
[1] = tested on: γ2 F77Y GABAAR; settings: versus wild type
[2] = tested on: α1 His101 replaced by glutamine, GABAAR; settings: versus wild type
[3] = tested on: α1 H101R mutation GABAAR
[4] = tested on: α1 H101C GABAAR; settings: versus wild type
[5] = tested on: γ2 F77L GABAAR
[6] = tested on: α1 Y209A GABAAR; settings: versus wild type
[7] = tested on: γ2 F77I GABAAR; settings: versus wild type

Row | Molecule | affinity loss (factor), γ2 F77Y [1] | affinity in α1 H101R mutant [3] | tolerance of point mutation γ2 F77L (affinity) [5] | decrease in binding affinity (factor), α1 Y209A [6] | loss of affinity (factor), γ2 F77I [7] | further results
1 | dichlorodiazepam | 700 |  |  |  |  | 
2 | monochlorodiazepam | 530 |  |  |  |  | 
3 | CN1C(=O)CN=C(c2ccccc2F)c2cc([N+](=O)[O-])ccc21 [flunitrazepam] |  | drastically reduced affinity |  |  |  | loss of affinity (factor), glutamine at α1 His101 [2]: 15; loss of affinity (factor), cysteine at α1 His101 [4]: 200
4 | CCOC(=O)c1ncn2c1CN(C)C(=O)c1cc(F)ccc1-2 [flumazenil] |  | tolerate this mutation | tolerated well | 41 | 2,000 | 
5 | Ro15-8670 |  |  |  |  | 4-5 | 
6 | CN1C(=O)CN=C(c2ccccc2)c2cc(Cl)ccc21 [diazepam] | 250 |  | tolerated well | 40 | 4-5 | 
